We go through 19 compounds from patent EP4722209A1 (Beijing Shenogen Pharma Group, priority 2023, dated 2024).

The structures appear in SMILES notation.

Broadly, the DC50 is the concentration at which degradation of the target reaches its halfway point. Higher therefore signals degradation only at high concentration. As usually defined, the GI50 is the concentration that inhibits growth by half.

One data set has as its target T1, ERα (Homo sapiens, UniProt P03372).
T1 construct: host or cells: MCF-7
T1 sequence (P03372 1-595): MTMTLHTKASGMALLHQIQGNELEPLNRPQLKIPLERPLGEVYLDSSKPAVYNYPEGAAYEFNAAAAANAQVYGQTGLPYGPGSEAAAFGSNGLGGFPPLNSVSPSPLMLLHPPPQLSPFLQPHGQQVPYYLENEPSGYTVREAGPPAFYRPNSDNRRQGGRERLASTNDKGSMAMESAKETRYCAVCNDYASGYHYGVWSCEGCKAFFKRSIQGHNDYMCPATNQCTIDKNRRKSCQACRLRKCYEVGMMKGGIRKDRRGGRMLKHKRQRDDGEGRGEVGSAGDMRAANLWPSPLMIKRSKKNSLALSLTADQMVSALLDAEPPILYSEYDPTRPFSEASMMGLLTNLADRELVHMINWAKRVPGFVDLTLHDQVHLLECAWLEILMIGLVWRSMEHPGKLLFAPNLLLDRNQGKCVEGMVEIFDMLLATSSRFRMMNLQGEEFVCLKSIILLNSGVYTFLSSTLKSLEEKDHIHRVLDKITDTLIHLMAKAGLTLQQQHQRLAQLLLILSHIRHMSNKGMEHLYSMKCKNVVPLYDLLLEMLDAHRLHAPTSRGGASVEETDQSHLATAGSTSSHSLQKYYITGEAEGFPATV
Description: ER degradation activity in MCF-7 cells (Western blot, grayscale intensity). It is filed as cell-based. Conditions: 6 hours treatment, 1 nM to 100 nM, concentration required to degrade 50% of the target protein. The essentials: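 MCF-7 cells were treated 24 h after seeding with test compounds at 1 nM to 100 nM final (0.2% DMSO) for 6 h at 37 °C. ERα in lysates (30 µg protein) was detected by Western blot with ECL; degradation was quantified from band grayscale intensity and DC50 derived.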
On the technique in general: A western blot detects proteins with antibodies after separation by electrophoresis.

A further data set relates to MCF-7 cells. The data set can be described thus: Inhibition of MCF-7 cell proliferation (CellTiter-Glo cell viability). It is filed as cell-based. The note with it: Homo sapiens, MCF7, 144 h, 6 days treatment, 1 pM to 10 µM. How it is done: ERα-positive human breast cancer cells MCF-7 (ATCC, HTB-22) were cultured with EMEM medium (ATCC, catalog number 30-2003) containing 10% fetal bovine serum (Thermo Fisher, catalog number 10099141) and 10 µg/mL bovine insulin in 25 cm^2 or 75 cm^2 plastic tissue culture flasks in a 37 °C incubator with 5% CO2. The cells were passaged 2 to 3 times per week.
MCF-7 cells were seeded in 96-well plate at 3×10^3 cells/well with 90 µL culture medium per well, and cultured in a 37 °C incubator with 95% air and 5% CO2. After 24 hours, the test compounds were added: the compounds were serially diluted 10-fold in DMSO starting from 10 mM (dissolved in DMSO) to prepare gradient stock solutions. A complete culture medium containing 1% DMSO was prepared for further dilution, temporarily named as the "dilution buffer." Working solutions were prepared by diluting each stock solution with 99 times the volume of dilution buffer, that is, by adding 1 µL of the 10 mM stock solution to 99 µL of the dilution buffer and mixing thoroughly. Finally, 10 µL of the working solution was added to the cell-seeded culture plate. The final concentration of DMSO in the cell culture medium was 0.2%, and the final concentration of the test compounds ranged from 1 pM to 10 µM. The cells were then incubated at 37 °C for 3 days. The culture medium was removed and replaced with 90µL per well of fresh medium. According to the above compound dilution method, the test compounds were added again. On the 6th day, the CellTiter Glo luminescent cell viability assay kit (Promag, item number G7573) was added for cell viability measurement.
Cell viability was measured using the CellTiter-Glo assay kit, and the half-maximal growth inhibitory concentration (GI50) of the compounds was calculated using the Prism software.
The GI50 values (i.e., the concentration of the test compounds required to inhibit 50% of the cell proliferation) were calculated and shown in Table 2. A corresponds to a GI50 value below 10 nM, B corresponds to a GI50 value greater than 10 nM and less than 100 nM, and C corresponds to GI50 values greater than 100 nM. Table 2. The GI50 values of exemplary compounds in MCF-7 cells
(In general: ATP-based viability assays read luminescence as a measure of living cells.)

The subject of data set [1] is MCF-7/ERα Y537S xenografts. Description: Anti-tumor activity in MCF-7 xenografts expressing ERα Y537S mutant. It is filed as in vivo, female Balb/c nude mice. Conditions: 1, 3 and 10 mpk, daily oral gavage, 17 days. The text has this: (§1) MCF-7/ERα Y537S tumors that had been passaged in mice for more than three but less than ten generations were transplanted as approximately 3×3×3 mm tumor blocks into the subcutaneous right flank of female Balb/c nude mice. When the tumor volume in the tumor-bearing mice reached around 200 mm^3, the mice were randomly divided into four groups according to tumor volume and body weight: vehicle group, 1 mpk group, 3 mpk group, and 10 mpk group, 7 mice in each group. The day of grouping was designated as D0, and daily oral gavage administration began on this day and last for a total of 17 days. The 17th day after administration was designated as Day 17.
(§2) The tumor volume was measured twice weekly using a caliper, and the body weight of the mice was measured using an analytical balance. The length and width of the tumor were measured, and the formula for tumor volume calculation is: Tumor Volume (TV) = 0.5 × length × width× width. The T/C value was calculated based on the tumor volume, where T is the mean relative tumor volume (RTV) of the treated groups, and C is the mean RTV of the vehicle group. The RTV is the ratio of the tumor volume after administration to the tumor volume before administration. The tumor growth inhibition rate (TGITV) (%) = (1 - T/C) × 100%.

Data set [2] can be described thus: Body weight of MCF-7/ERα Y537S xenograft mice. It is filed as in vivo, female Balb/c nude mice. Conditions: 1, 3 and 10 mpk, daily oral gavage, 17 days.
Excerpt: as §1, §2

With `CC1(C)CC(=C(c2ccc(N3CCC(CN4CCN(c5ccc6c(c5)CN(C5CCC(=O)NC5=O)C6=O)CC4)CC3)nc2)c2ccc3[nH]nc(F)c3c2)CC(C)(C)O1` (racemic) [Compound 34], the DC50 on ERα was below 10 nM. Besides, the GI50 in the data set with MCF-7 cells is below 10 nM.
At ERα, `CC1(C)CC(=C(c2ccc(N3CCC4(CC3)CC(N3CCN(c5ccc6c(c5)CN(C5CCC(=O)NC5=O)C6=O)CC3)C4)nc2)c2ccc3[nH]nc(F)c3c2)CC(C)(C)O1` (racemic) [Compound 35] came in with a DC50 below 10 nM. In the data set with MCF-7 cells, this compound gave a concentration for 50% growth inhibition (GI50) below 10 nM.
Turning to `CC1(C)CC(=C(c2ccc(N3CCN(C4CN(c5ccc6c(c5)C(=O)N(C5CCC(=O)NC5=O)C6=O)C4)CC3)cc2)c2ccc3[nH]nc(F)c3c2)CC(C)(C)O1` (stereo not drawn) [Compound 2], on ERα, the DC50 is below 10 nM. The same compound returned a GI50 in the data set on MCF-7 cells of 10 to 100 nM.
As for `CC1(C)CC(=C(c2ccc(N3CCC(CN4CCN(c5ccc6c(c5)C(=O)N(C5CCC(=O)NC5=O)C6=O)CC4)CC3)cc2)c2ccc3[nH]ncc3c2)CC(C)(C)O1` (stereo not drawn) [Compound 5], the DC50 on ERα was below 10 nM. The compound also had a concentration for 50% growth inhibition (GI50) with MCF-7 cells below 10 nM.
With `CC1(C)CC(=C(c2ccc(N3CCC(CN4CCN(c5ccc6c(c5)C(=O)N(C5CCC(=O)NC5=O)C6=O)CC4)CC3)cc2)c2ccc3[nH]nc(F)c3c2)CC(C)(C)O1` (stereo not drawn) [Compound 6], the DC50 on ERα is below 10 nM. In the data set on MCF-7 cells, the GI50 was below 10 nM.
`CC1(C)CC(=C(c2ccc(N3CCN(C4CCN(c5ccc6c(c5)C(=O)N(C5CCC(=O)NC5=O)C6=O)CC4)CC3)cc2)c2ccc3[nH]nc(F)c3c2)CC(C)(C)O1` (stereo not drawn) [Compound 22] registered a DC50 on ERα below 10 nM. Moreover, the GI50 with MCF-7 cells was below 10 nM.
In the case of `CC1(C)CC(=C(c2ccc(N3CCC(N4CCN(c5ccc6c(c5)C(=O)N(C5CCC(=O)NC5=O)C6=O)CC4)CC3)cc2)c2ccc3[nH]nc(F)c3c2)CC(C)(C)O1` (stereo not drawn) [Compound 31], the 50% degradation concentration (DC50) at ERα is below 10 nM. The compound further displayed a GI50 in the data set with MCF-7 cells below 10 nM.
For `CC1(C)CC(=C(c2ccc(N3CCC(N4CCN(c5ccc6c(c5)CN(C5CCC(=O)NC5=O)C6=O)CC4)CC3)cc2)c2ccc3[nH]nc(F)c3c2)CC(C)(C)O1` (stereo not drawn) [Compound 37], the DC50 on ERα fell in the range of 10 to 100 nM. The compound also gave a GI50 with MCF-7 cells below 10 nM.
In the same order, the values of `CC1(C)CC(=C(c2ccc(N3CCC(CNC4CCN(c5ccc6c(c5)CN(C5CCC(=O)NC5=O)C6=O)CC4)CC3)nc2)c2ccc3[nH]nc(F)c3c2)CC(C)(C)O1` (stereo not drawn) [Compound 44] are below 10 nM and below 10 nM.
With `CC1(C)CC(=C(c2ccc(N3CC4(CCN(C5CCN(c6ccc7c(c6)CN(C6CCC(=O)NC6=O)C7=O)CC5)CC4)C3)nc2)c2ccc3[nH]nc(F)c3c2)CC(C)(C)O1` (stereo not drawn) [Compound 46], the DC50 at ERα was below 10 nM. In the data set with MCF-7 cells, this compound came in with a GI50 below 10 nM.
On ERα, `CC1(C)CC(=C(c2ccc(N3CCC4(CC3)CN(C3CCN(c5ccc6c(c5)CN(C5CCC(=O)NC5=O)C6=O)CC3)C4)nc2)c2ccc3[nH]nc(F)c3c2)CC(C)(C)O1` (stereo not drawn) [Compound 47] came in with a DC50 below 10 nM. Moreover, the 50% growth inhibitory concentration (GI50) with MCF-7 cells was below 10 nM.
In turn, `CC1(C)CC(=C(c2ccc(N3CCC(F)(CNC4CCN(c5ccc6c(c5)CN(C5CCC(=O)NC5=O)C6=O)CC4)CC3)nc2)c2ccc3[nH]nc(F)c3c2)CC(C)(C)O1` (stereo not drawn) [Compound 48] displayed a 50% degradation concentration (DC50) on ERα below 10 nM. In the data set on MCF-7 cells, this compound yielded a GI50 below 10 nM.
For `CC1(C)CC(=C(c2ccc(N3CCC(CN4CCN(c5ccc(N6CCC(=O)NC6=O)cc5)CC4)CC3)nc2)c2ccc3[nH]nc(F)c3c2)CC(C)(C)O1` [Compound 77], at ERα, the DC50 is above 100 nM. This compound registered a GI50 with MCF-7 cells above 100 nM.
In turn, `CC1(C)CC(=C(c2ccc(N3CCC(CN4CCN(c5ccc(NC6CCC(=O)NC6=O)cc5)CC4)CC3)nc2)c2ccc3[nH]nc(F)c3c2)CC(C)(C)O1` (stereo not drawn) [Compound 88] gave a DC50 on ERα above 100 nM. In the data set on MCF-7 cells, the 50% growth inhibitory concentration (GI50) was above 100 nM.
On ERα, `CC1(C)CC(=C(c2ccc(N3CCC(CN4CCN(c5ccc(NC6CCC(=O)NC6=O)c(F)c5)CC4)CC3)nc2)c2ccc3[nH]nc(F)c3c2)CC(C)(C)O1` (stereo not drawn) [Compound 89] came in with a DC50 above 100 nM. In addition, the GI50 in the data set with MCF-7 cells is above 100 nM.
`CC1(C)CC(=C(c2ccc(N3CCC(CN4CCN(c5ccc6c(c5)CN([C@H]5CCC(=O)NC5=O)C6=O)CC4)CC3)nc2)c2ccc3[nH]nc(F)c3c2)CC(C)(C)O1` [Compound 110] came in with a DC50 at ERα below 10 nM. The same compound gave a GI50 in the data set on MCF-7 cells below 10 nM. Moreover, the tumor growth inhibition result in data set [1] is listed as “dose-dependent tumor growth inhibition”. In addition, the “effect on body weight” value in data set [2] was “no effect”.
Compound `CC1(C)CC(=C(c2ccc(N3CCC(CN4CCN(c5ccc6c(c5)CN([C@@H]5CCC(=O)NC5=O)C6=O)CC4)CC3)nc2)c2ccc3[nH]nc(F)c3c2)CC(C)(C)O1` [Compound 119] returned a DC50 at ERα below 10 nM. In the data set with MCF-7 cells, this compound returned a GI50 below 10 nM.
With `CC1(C)CC(=C(c2ccc(N3CCC4(CC3)CC(N3CCN(c5ccc6c(c5)CN([C@H]5CCC(=O)NC5=O)C6=O)CC3)C4)nc2)c2ccc3[nH]nc(F)c3c2)CC(C)(C)O1` [Compound 120], on ERα, the DC50 is below 10 nM. Moreover, the concentration for 50% growth inhibition (GI50) with MCF-7 cells is below 10 nM. In data set [1], the tumor growth inhibition entry was “dose-dependent tumor growth inhibition”. Also, the “effect on body weight” value in data set [2] is recorded as “no effect”.
As to `CC1(C)CC(=C(c2ccc(N3CCC4(CC3)CC(N3CCN(c5ccc6c(c5)CN([C@@H]5CCC(=O)NC5=O)C6=O)CC3)C4)nc2)c2ccc3[nH]nc(F)c3c2)CC(C)(C)O1` [Compound 121], at ERα, the DC50 is below 10 nM. Also, in the data set with MCF-7 cells, the GI50 is below 10 nM.
